Reference: patent publication US11986540B2, “Compositions including pafolacianine for the identification of malignant lesions” (ON TARGET LABORATORIES, LLC., priority 2022, dated 2024)
Read-outs that look alike come from different tables or passages of the source.

Legend:
Type in all cases: in vivo
[1] = Single IV dose toxicokinetics in dogs; conditions: for AUC(0-t) / C0: dog, in vivo
Procedure: Following a single IV administration of pafolacianine to male and female dogs, systemic exposure (C0, AUClast) to pafolacianine appeared similar between males and females at all dose levels (Table 3). Similar to rats, dog AUClast values were calculated from a range of concentration-time data with Tlast values varying from 5 minutes to 4 hours. In addition, there were limited dogs with reportable TK at 0.9 mg/kg (N=1-2). As a consequence, dose proportionality was not assessed for dogs. Terminal data were generally sparse (i.e., 2 or fewer measurable concentrations in the terminal phase, (FIG. 4). Similar to rat, parameters dependent on accurate determination of the terminal phase (AUCinf, T1/2, CL, Vz) were not reported.

[2] = Pharmacokinetics in specific populations; conditions: age 18-89 years, weight 41.6-133.6 kg, mild to moderate renal or hepatic impairment
[3] = Repeat once-weekly IV dose toxicokinetics in dogs; conditions: for half-life / AUC(0-inf) / AUC(0-t) / C0 / clearance / Vd: dog, in vivo; for Vd: read-out: Vss
Procedure: Overall, drug concentrations increased with ascending dose, noting that the mean profiles at the two highest dose levels were overlapping. Systemic exposure (AUClast) to pafolacianine was approximately dose-proportional over the range of doses administered (0.9 to 13.9 mg/kg) and within the observed variability (Table 5). […] On both Day 0 and Day 13, CL was slow (relative to hepatic blood flow) and Vss was moderate. Mean T1/2 ranged from approximately 13 to 18 hours.

[4] = female dogs, 0.9 mg/kg single IV, Study Day 0, N = 1
[5] = female dogs, 9.3 mg/kg single IV, Study Day 0
[6] = female dogs, 13.9 mg/kg single IV, Study Day 0
[7] = male dogs, 0.9 mg/kg single IV, Study Day 0, N = 2
[8] = male dogs, 9.3 mg/kg single IV, Study Day 0
[9] = male dogs, 13.9 mg/kg single IV, Study Day 0
[10] = female, iv, 0.9 mg/kg, dogs F, 0.9 mg/kg once-weekly IV, Day 0
[11] = female, iv, 0.9 mg/kg, dogs F, 0.9 mg/kg once-weekly IV, Day 13
[12] = female, iv, 9.3 mg/kg, dogs F, 9.3 mg/kg once-weekly IV, Day 0
[13] = female, iv, 9.3 mg/kg, dogs F, 9.3 mg/kg once-weekly IV, Day 13
[14] = female, iv, 13.9 mg/kg, dogs F, 13.9 mg/kg once-weekly IV, Day 0
[15] = female, iv, 13.9 mg/kg, dogs F, 13.9 mg/kg once-weekly IV, Day 13
[16] = male, iv, 0.9 mg/kg, dogs M, 0.9 mg/kg once-weekly IV, Day 0
[17] = male, iv, 0.9 mg/kg, dogs M, 0.9 mg/kg once-weekly IV, Day 13
[18] = male, iv, 9.3 mg/kg, dogs M, 9.3 mg/kg once-weekly IV, Day 0
[19] = male, iv, 9.3 mg/kg, dogs M, 9.3 mg/kg once-weekly IV, Day 13
[20] = male, iv, 13.9 mg/kg, dogs M, 13.9 mg/kg once-weekly IV, Day 0
[21] = male, iv, 13.9 mg/kg, dogs M, 13.9 mg/kg once-weekly IV, Day 13

With CC1(C)C(=CC=C2CCCC(C=CC3=[N+](CCCCS(=O)(=O)[O-])c4ccc(S(=O)(=O)O)cc4C3(C)C)=C2Oc2ccc(CC(NC(=O)c3ccc(NCc4cnc5nc(N)[nH]c(=O)c5n4)cc3)C(=O)O)cc2)N(CCCCS(=O)(=O)O)c2ccc(S(=O)(=O)O)cc21 (stereo not drawn) [pafolacianine] the AUC(0-t) [1, 4] was 362 ng·h/mL, the C0 [1, 4] was 4.36 µg/mL and the AUC(0-t) [1, 5] was 17600 ng·h/mL. For the same compound, the C0 [1, 5] was 61.5 µg/mL, the AUC(0-t) [1, 6] was 44000 ng·h/mL and the C0 [1, 6] was 109 µg/mL. The AUC(0-t) [1, 7] was 397 ng·h/mL, the C0 [1, 7] was 3.79 µg/mL and the AUC(0-t) [1, 8] was 16800 ng·h/mL. It also gave a C0 [1, 8] of 58.5 µg/mL, an AUC(0-t) [1, 9] of 42100 ng·h/mL and a C0 [1, 9] of 107 µg/mL. For the same compound, the “DN AUClast” value [1, 4] was 0.402 (μg · h/mL)/(mg/kg), the “DN AUClast” value [1, 5] was 1.89 (μg · h/mL)/(mg/kg) and the “DN AUClast” value [1, 6] was 3.17 (μg · h/mL)/(mg/kg). For the same compound, the “DN AUClast” value [1, 7] was 0.442 (μg · h/mL)/(mg/kg), the “DN AUClast” value [1, 8] was 1.81 (μg · h/mL)/(mg/kg) and the “DN AUClast” value [1, 9] was 3.03 (μg · h/mL)/(mg/kg). The “differences in pharmacokinetics by age, weight, renal or hepatic impairment” value [2] was “No clinically significant differences”, the half-life ([3]; both sexes, intravenous, dogs, all doses and days, read-out: Mean T1/2 range) was 13 to 18 h and the “DN AUClast” value ([3]; dogs F, 0.9 mg/kg once-weekly IV, Day 0) was 9.34 (μg · h/ml) (mg/kg). The “DN AUClast” value ([3]; dogs F, 0.9 mg/kg once-weekly IV, Day 13) was 7.36 (μg · h/ml) (mg/kg), the “DN AUClast” value ([3]; dogs F, 9.3 mg/kg once-weekly IV, Day 0) was 5.46 (μg · h/ml) (mg/kg) and the “DN AUClast” value ([3]; dogs F, 9.3 mg/kg once-weekly IV, Day 13) was 6.21 (μg · h/ml) (mg/kg). For the same compound, the “DN AUClast” value ([3]; dogs F, 13.9 mg/kg once-weekly IV, Day 0) was 5.74 (μg · h/ml) (mg/kg), the “DN AUClast” value ([3]; dogs F, 13.9 mg/kg once-weekly IV, Day 13) was 6.81 (μg · h/ml) (mg/kg) and the “DN AUClast” value ([3]; dogs M, 0.9 mg/kg once-weekly IV, Day 0) was 5.27 (μg · h/ml) (mg/kg). The “DN AUClast” value ([3]; dogs M, 0.9 mg/kg once-weekly IV, Day 13) was 5.64 (μg · h/ml) (mg/kg), the “DN AUClast” value ([3]; dogs M, 9.3 mg/kg once-weekly IV, Day 0) was 6.24 (μg · h/ml) (mg/kg) and the “DN AUClast” value ([3]; dogs M, 9.3 mg/kg once-weekly IV, Day 13) was 7.03 (μg · h/ml) (mg/kg). For the same compound, the “DN AUClast” value ([3]; dogs M, 13.9 mg/kg once-weekly IV, Day 0) was 5.65 (μg · h/ml) (mg/kg), the “DN AUClast” value ([3]; dogs M, 13.9 mg/kg once-weekly IV, Day 13) was 6.18 (μg · h/ml) (mg/kg) and the “accumulation or changes in TK after repeated dosing” value ([3]; dogs, once-weekly dosing for 3 weeks) was “no accumulation or changes in TK were evident”. For the same compound, the AUC(0-inf) [3, 10] was 10500 ng·h/mL, the AUC(0-t) [3, 10] was 8400 ng·h/mL and the C0 [3, 10] was 4.75 µg/mL. It also gave a clearance [3, 10] of 1.59 mL/min/kg, a half-life ([3]; female, iv, 0.9 mg/kg, dogs F, 0.9 mg/kg once-weekly IV, Day 0, read-out: T1/2 (converted)) of 15 h and a Vd [3, 10] of 1.47 L/kg. It also gave an AUC(0-inf) [3, 11] of 8420 ng·h/mL, an AUC(0-t) [3, 11] of 6630 ng·h/mL and a C0 [3, 11] of 8.92 µg/mL. For the same compound, the clearance [3, 11] was 1.8 mL/min/kg, the half-life ([3]; female, iv, 0.9 mg/kg, dogs F, 0.9 mg/kg once-weekly IV, Day 13, read-out: T1/2 (converted)) was 13.1 h and the Vd [3, 11] was 1.49 L/kg. It also gave an AUC(0-inf) [3, 12] of 69300 ng·h/mL, an AUC(0-t) [3, 12] of 50800 ng·h/mL and a C0 [3, 12] of 54.9 µg/mL. The clearance [3, 12] was 2.35 mL/min/kg, the half-life ([3]; female, iv, 9.3 mg/kg, dogs F, 9.3 mg/kg once-weekly IV, Day 0, read-out: T1/2 (converted)) was 15.2 h and the Vd [3, 12] was 2.38 L/kg. The AUC(0-inf) [3, 13] was 76600 ng·h/mL, the AUC(0-t) [3, 13] was 57700 ng·h/mL and the C0 [3, 13] was 67.8 µg/mL. It also gave a clearance [3, 13] of 2.11 mL/min/kg, a half-life ([3]; female, iv, 9.3 mg/kg, dogs F, 9.3 mg/kg once-weekly IV, Day 13, read-out: T1/2 (converted)) of 14.3 h and a Vd [3, 13] of 1.94 L/kg. The AUC(0-inf) [3, 14] was 109000 ng·h/mL, the AUC(0-t) [3, 14] was 79800 ng·h/mL and the C0 [3, 14] was 79.6 µg/mL. The clearance [3, 14] was 2.15 mL/min/kg, the half-life ([3]; female, iv, 13.9 mg/kg, dogs F, 13.9 mg/kg once-weekly IV, Day 0, read-out: T1/2 (converted)) was 15.3 h and the Vd [3, 14] was 2.2 L/kg. The AUC(0-inf) [3, 15] was 129000 ng·h/mL, the AUC(0-t) [3, 15] was 94700 ng·h/mL and the C0 [3, 15] was 104 µg/mL. It also gave a clearance [3, 15] of 1.81 mL/min/kg, a half-life ([3]; female, iv, 13.9 mg/kg, dogs F, 13.9 mg/kg once-weekly IV, Day 13, read-out: T1/2 (converted)) of 15.3 h and a Vd [3, 15] of 1.83 L/kg. The AUC(0-inf) [3, 16] was 6400 ng·h/mL, the AUC(0-t) [3, 16] was 4740 ng·h/mL and the C0 [3, 16] was 4.66 µg/mL. The clearance [3, 16] was 2.39 mL/min/kg, the half-life ([3]; male, iv, 0.9 mg/kg, dogs M, 0.9 mg/kg once-weekly IV, Day 0, read-out: T1/2 (converted)) was 14.8 h and the Vd [3, 16] was 2.31 L/kg. For the same compound, the AUC(0-inf) [3, 17] was 7360 ng·h/mL, the AUC(0-t) [3, 17] was 5070 ng·h/mL and the C0 [3, 17] was 5.73 µg/mL. It also gave a clearance [3, 17] of 2.09 mL/min/kg, a half-life ([3]; male, iv, 0.9 mg/kg, dogs M, 0.9 mg/kg once-weekly IV, Day 13, read-out: T1/2 (converted)) of 17.6 h and a Vd [3, 17] of 2.42 L/kg. For the same compound, the AUC(0-inf) [3, 18] was 81200 ng·h/mL, the AUC(0-t) [3, 18] was 58000 ng·h/mL and the C0 [3, 18] was 62.1 µg/mL. The clearance [3, 18] was 1.92 mL/min/kg, the half-life ([3]; male, iv, 9.3 mg/kg, dogs M, 9.3 mg/kg once-weekly IV, Day 0, read-out: T1/2 (converted)) was 16.4 h and the Vd [3, 18] was 2.1 L/kg. For the same compound, the AUC(0-inf) [3, 19] was 85100 ng·h/mL, the AUC(0-t) [3, 19] was 65400 ng·h/mL and the C0 [3, 19] was 72.6 µg/mL. It also gave a clearance [3, 19] of 1.84 mL/min/kg, a half-life ([3]; male, iv, 9.3 mg/kg, dogs M, 9.3 mg/kg once-weekly IV, Day 13, read-out: T1/2 (converted)) of 13.3 h and a Vd [3, 19] of 1.6 L/kg. The AUC(0-inf) [3, 20] was 110000 ng·h/mL, the AUC(0-t) [3, 20] was 78500 ng·h/mL and the C0 [3, 20] was 81.8 µg/mL. For the same compound, the clearance [3, 20] was 2.13 mL/min/kg, the half-life ([3]; male, iv, 13.9 mg/kg, dogs M, 13.9 mg/kg once-weekly IV, Day 0, read-out: T1/2 (converted)) was 16.2 h and the Vd [3, 20] was 2.35 L/kg. It also gave an AUC(0-inf) [3, 21] of 117000 ng·h/mL, an AUC(0-t) [3, 21] of 85900 ng·h/mL and a C0 [3, 21] of 108 µg/mL. The clearance [3, 21] was 2 mL/min/kg, the half-life ([3]; male, iv, 13.9 mg/kg, dogs M, 13.9 mg/kg once-weekly IV, Day 13, read-out: T1/2 (converted)) was 15 h and the Vd [3, 21] was 2.02 L/kg.
